Measured values reported in US20230131899A1, “INHIBITORS OF MICROBIALLY INDUCED AMYLOID” (Axial Therapeutics, Inc., priority 2020, published 2023).
Where two headings read alike, the source gives them in different places.

What was measured:
human α-synuclein = target: T1, human α-synuclein (Homo sapiens, UniProt P37840); experiment: Cell-free Thioflavin T assay of α-synuclein aggregation (αSyn ThT Assay); assay type: biochemical; conditions: αSyn 50 μM
T1 construct: the full-length gene for untagged human α-synuclein was inserted; made in house; host or cells: E. coli BL21(DE3), plasmid derived from pT7 or pET11a
Description: To assess the effects of compounds on aggregation of α-synuclein, a cell-free assay was performed using purified α-synuclein and Thioflavin T. In the assay, human α-synuclein was expressed in E. coli BL21(DE3) from a plasmid derived from pT7 or pET11a into which the full-length gene for untagged human α-synuclein was inserted. Cells were induced at OD600 0.6 with 0.8 mM IPTG for 4 hours, harvested by centrifugation and suspended in a volume of lysis buffer (10 mM Tris, pH 8.0, 1 mM EDTA, and 1 mM PMSF) equivalent to one-tenth the volume of culture and lysed by boiling for 20 minutes. Cell debris was pelleted by centrifugation, clarified lysate was treated with 10% streptomycin sulfate at 136 μL/mL followed by glacial acetic acid at 228 μL/mL, lysate was centrifuged, supernatant was transferred to a fresh tube and protein was precipitated via addition of an equal volume of saturated (100%) ammonium sulfate and incubated at 4° C. on a rocking shaker for 1 hour. The protein was pelleted via centrifugation and washed with an equal volume of 100 mM ammonium acetate in chilled ethanol, pelleted via centrifugation, washed twice with chilled ethanol, dried overnight, resuspended in 50 mM potassium phosphate buffer pH 7.3 or 10 mM Tris pH 7.4, and passed through a 50 kDa cut-off column. Immediately prior to use, the purified α-synuclein was filtered with a 0.2 μm nylon filter. The assay was conducted in 96-well black microplates with a single 1-2 mm glass bead in each well, 20-40 μM ThioflavinT, 1% DMSO, α-synuclein at 50 μM and compounds at 20-100 μM. Plates were sealed with sealing tape (ThermoFisher 232701), incubated at 37° C. in a Tecan Nano F200 plate reader with excitation at 438 nm using a 439 nm filter with a bandwidth of 8 nm, and emission at 495 nm with a 490 nm filter with a bandwidth of 10 nm. During the assay, plates were shaken continuously or were shaken for 999 seconds every 18 minutes. Readings were performed hourly for up to 73 hours. The effect of compounds on α-synuclein aggregation in the assay was determined with data at 36, 47, 48 or 72 hours or from the final timepoint of the assay, prior to or roughly near the time when ThT fluorescence plateaued in the vehicle control wells. The vehicle controls contained all components of the assay except compounds and represented the level of α-synuclein aggregation in the absence of an inhibitor or accelerator. Fluorescence values for each compound with α-synuclein were first adjusted by subtracting the average fluorescence of the compound in the absence of α-synuclein. These adjusted values were normalized by dividing them by the average fluorescence at the same timepoint in the vehicle control wells, and the average normalized fluorescence with the compound was expressed as a percentage of the average fluorescence observed in untreated controls. Percent inhibition of α-synuclein aggregation by a compound was determined by subtracting the percent average fluorescence with the compound relative to the average vehicle control from 100%. A higher positive percent inhibition reflects greater inhibition of α-synuclein aggregation, while a negative percent inhibition reflects potentiation of α-synuclein aggregation.
Alternate concentrations of Thioflavin T may be used in the assay and may affect the fluorescent signal and sensitivity of the assay. Alternate concentrations of α-synuclein may be used and such alterations may affect aggregation kinetics of α-synuclein in the assay. Alternate concentrations of compounds may be tested in the assay, and dose-responses may be evaluated. Additional reagents may be added to the assay which may affect aggregation kinetics of α-synuclein depending on their concentration, including detergents such as sodium dodecyl sulfate, sodium chloride, dithiotreitol, or bovine serum albumin. Shaking may be included at alternate intervals in the assay and may affect α-synuclein aggregation kinetics. […]

E. coli CsgA = target: T2, E. coli CsgA (Escherichia coli, UniProt P28307); experiment: In vitro ThioflavinT assay of CsgA aggregation (CsgA ThT Assay); assay type: biochemical; conditions: for remaining activity at 25 µM: compound 25 μM; for remaining activity at 100 µM: compound 100 μM
T2 construct: made in house; host or cells: E. coli NEB 3016 slyD::kan, pET11d
T2 sequence (P28307 23-151): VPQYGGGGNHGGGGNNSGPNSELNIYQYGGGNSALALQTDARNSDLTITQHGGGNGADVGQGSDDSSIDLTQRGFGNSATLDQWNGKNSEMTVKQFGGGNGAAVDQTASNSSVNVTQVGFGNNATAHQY
Method in brief: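 Purified C-terminal His-tagged CsgA, monomerised by desalting and 30-kDa filtration, at 2-20 μM with 20-40 μM ThT in 50 mM potassium phosphate pH 7.3, 1% DMSO, compounds 3.125-200 uM; room temperature, fluorescence (ex 438/em 495 nm) read every 15 min. Background-subtracted signal expressed as percent inhibition versus vehicle at 6-6.5 or 8-9 h, or as percent control AUC.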

[1] = mean % inhibition of αSyn aggregation relative to DMSO control, compounds at 100 μM, read-out: αSyn ThT Assay % Inhibition
[2] = compounds at 100 μM, class symbol, read-out: αSyn ThT Assay % Inhibition (activity range)
[3] = read-out: CsgA ThT Assay (10 μM CsgA) % Control AUC at 1005 minutes, 25 μM (activity range), CsgA 10 μM, black plates, 1005 minutes, class symbol
[4] = read-out: CsgA ThT Assay (10 μM CsgA) % Control AUC at 1005 minutes, 25 μM, mean AUC as % of DMSO control, CsgA 10 μM, black plates, 1005 minutes
[5] = read-out: CsgA ThT Assay (10 μM CsgA) % Control AUC at 1005 minutes, 100 μM (activity range), CsgA 10 μM, black plates, 1005 minutes, class symbol
[6] = read-out: CsgA ThT Assay (10 μM CsgA) % Control AUC at 1005 minutes, 100 μM, mean AUC as % of DMSO control, CsgA 10 μM, black plates, 1005 minutes
[7] = class symbol, compounds 100 μM, read-out: αSyn ThT Assay % inhibition, activity range
[8] = mean percent inhibition relative to DMSO control, compounds 100 μM, read-out: αSyn ThT Assay % inhibition
[9] = read-out: CsgA ThT Assay (2 μM CsgA) % Control Bmax 25 μM, activity range, class symbol, CsgA 2 μM, white plates
[10] = read-out: CsgA ThT Assay (2 μM CsgA) % Control Bmax 25 μM, mean Bmax as percentage of DMSO control, CsgA 2 μM, white plates
[11] = read-out: CsgA ThT Assay (2 μM CsgA) % Control Bmax 100 μM, activity range, class symbol, CsgA 2 μM, white plates
[12] = read-out: CsgA ThT Assay (2 μM CsgA) % Control Bmax 100 μM, mean Bmax as percentage of DMSO control, CsgA 2 μM, white plates

SMILES | inhibition at 100 µM (human α-synuclein; [1]) [%] | inhibition at 100 µM (human α-synuclein; [2]) [%] | remaining activity at 25 µM (E. coli CsgA; [3]) [%] | remaining activity at 25 µM (E. coli CsgA; [4]) [%] | remaining activity at 100 µM (E. coli CsgA; [5]) [%] | remaining activity at 100 µM (E. coli CsgA; [6]) [%] | inhibition at 100 µM (human α-synuclein; [7]) [%] | inhibition at 100 µM (human α-synuclein; [8]) [%] | remaining activity at 25 µM (E. coli CsgA; [9]) [%] | remaining activity at 25 µM (E. coli CsgA; [10]) [%] | remaining activity at 100 µM (E. coli CsgA; [11]) [%] | remaining activity at 100 µM (E. coli CsgA; [12]) [%]
O=C(O)c1csc2c(-c3cccc(C(F)(F)F)c3)c(Cc3cccc4ccccc34)cc(=O)n12 [Compound 019, 7-(naphthalen-1-ylmethyl)-5-oxo-8-(3-(trifluoromethyl)phenyl)-5H-thiazolo[3,2-a]pyridine-3-carboxylic acid] | 41 | 31 to 60 | > 60 | 69 | > 60 | 104 |  |  |  |  |  | 
O=C(O)CCCN1CC(C(=O)O)n2c(c(-c3cccc(C(F)(F)F)c3)c(Cc3cccc4ccccc34)cc2=O)S1(=O)=O (stereo not shown) [Compound 029, 2-(3-carboxypropyl)-8-(naphthalen-1-ylmethyl)-6-oxo-9-(3-(trifluoromethyl)phenyl)-3,4-dihydro-2H,6H-pyrido[1,2-e][1,2,5]thiadiazine-4-carboxylic acid 1,1-dioxide] | -2 | -10 to 10 | > 60 | 71 | 31 to 60 | 48 |  |  |  |  |  | 
CN1CC(C(=O)O)n2c(c(-c3cccc(C(F)(F)F)c3)c(Cc3ccc(N)c4ccccc34)cc2=O)S1(=O)=O (stereo not shown) [Compound 040] | 61 | > 60 | > 60 | 78 | < 10 | 8 |  |  |  |  |  | 
CC(=O)Nc1ccc(Cc2cc(=O)n3c(c2-c2cccc(C(F)(F)F)c2)S(=O)(=O)N(C)CC3C(=O)O)c2ccccc12 (stereo not shown) [Compound 048] | 18 | 11 to 30 | > 60 | 90 | > 60 | 61 |  |  |  |  |  | 
Nc1c(Cc2cccc3ccccc23)c(-c2cccc(C(F)(F)F)c2)c2scc(C(=O)O)n2c1=O [Compound 050, 6-amino-7-(naphthalen-1-ylmethyl)-5-oxo-8-(3-(trifluoromethyl)phenyl)-5H-thiazolo[3,2-a]pyridine-3-carboxylic acid] | 49 | 31 to 60 | 31 to 60 | 36 | 11 to 31 | 22 |  |  |  |  |  | 
CN1CC(C(=O)O)n2c(c(-c3cccc(C(F)(F)F)c3)c(Cc3ccc(NS(C)(=O)=O)c4ccccc34)cc2=O)S1(=O)=O (stereo not shown) [Compound 067] | 35 | 31 to 60 | > 60 | 67 | 11 to 31 | 16 |  |  |  |  |  | 
CCCN1CC(C(=O)O)n2c(c(-c3cccc(C(F)(F)F)c3)c(Cc3cccc4ccccc34)c(OC3CCCC3)c2=O)S1(=O)=O (stereo not shown) [Compound 144, 7-(cyclopentyloxy)-8-(naphthalen-1-ylmethyl)-6-oxo-2-propyl-9-(3-(trifluoromethyl)phenyl)-3,4-dihydro-2H,6H-pyrido[1,2-e][1,2,5]thiadiazine-4-carboxylic acid 1,1-dioxide] |  |  |  |  |  |  | 11 to 30 | 29 | > 60 | 77 |  | 
CCCN1CC(C(=O)O)n2c(c(-c3cccc(C(F)(F)F)c3)c(Cc3cccc4ccccc34)c(N3CCCC3=O)c2=O)S1(=O)=O (stereo not shown) [Compound 151, 8-(naphthalen-1-ylmethyl)-6-oxo-7-(2-oxopyrrolidin-1-yl)-2-propyl-9-(3-(trifluoromethyl)phenyl)-3,4-dihydro-2H,6H-pyrido[1,2-e][1,2,5]thiadiazine-4-carboxylic acid 1,1-dioxide] |  |  |  |  |  |  | > 60 | 61 | > 60 | 67 | > 60 | 73
CC(C)NC(=O)c1c(Cc2cccc3ccccc23)c(-c2cccc(C(F)(F)F)c2)c2n(c1=O)C(C(=O)O)CN(C)S2(=O)=O (stereo not shown) [Compound 157, 7-(isopropylcarbamoyl)-2-methyl-8-(naphthalen-1-ylmethyl)-6-oxo-9-(3-(trifluoromethyl)phenyl)-3,4-dihydro-2H,6H-pyrido[1,2-e][1,2,5]thiadiazine-4-carboxylic acid 1,1-dioxide] |  |  |  |  |  |  | > 60 | 83 | > 60 | 81 | > 60 | 124
CC(C)CNC(=O)c1c(Cc2cccc3ccccc23)c(-c2cccc(C(F)(F)F)c2)c2n(c1=O)C(C(=O)O)CN(C)S2(=O)=O (stereo not shown) [Compound 159, 7-(isobutylcarbamoyl)-2-methyl-8-(naphthalen-1-ylmethyl)-6-oxo-9-(3-(trifluoromethyl)phenyl)-3,4-dihydro-2H,6H-pyrido[1,2-e][1,2,5]thiadiazine-4-carboxylic acid 1,1-dioxide] |  |  |  |  |  |  | > 60 | 83 | > 60 | 64 | > 60 | 76
COc1cccc(CN2CC(C(=O)O)n3c2c(-c2cccc(C(F)(F)F)c2)c(Cc2cccc4ccccc24)c(Cl)c3=O)c1 (stereo not shown) [Compound 191, 6-chloro-1-(3-methoxybenzyl)-7-(naphthalen-1-ylmethyl)-5-oxo-8-(3-(trifluoromethyl)phenyl)-1,2,3,5-tetrahydroimidazo[1,2-a]pyridine-3-carboxylic acid] |  |  |  |  |  |  | 31 to 60 | 55 | 31 to 60 | 58 | 31 to 60 | 43
